Laboratory results as given in the NIST ThermoML archive (doi:10.1007/s10765-010-0862-1).
± gives the expanded uncertainty stated by the source.

Assays:
[1] = 101.3 kPa, Liquid
[2] = mn = molality of the nth substance listed, in mol/kg; conditions: 101.3 kPa, Liquid

O [water]
[1]
Conditions | speed of sound [m/s]
313.15 K | 1528 ± 3.1
318.15 K | 1535.2 ± 3.2

NCCCC(=O)O [4-aminobutanoic acid] + O
[2]
Conditions | mass density, m1 = 0.02 [kg/m3] | mass density, m1 = 0.04 [kg/m3] | mass density, m1 = 0.06 [kg/m3] | mass density, m1 = 0.08 [kg/m3] | mass density, m1 = 0.1 [kg/m3] | speed of sound, m1 = 0.02 [m/s] | speed of sound, m1 = 0.04 [m/s] | speed of sound, m1 = 0.06 [m/s] | speed of sound, m1 = 0.08 [m/s] | speed of sound, m1 = 0.1 [m/s]
308.15 K | 994.6 ± 1.2 | 995.2 ± 1.2 | 995.8 ± 1.2 | 996.4 ± 1.2 | 997 ± 1.2 | 1521.8 ± 3.1 | 1523 ± 3.1 | 1524.3 ± 3.1 | 1525.6 ± 3.1 | 1527 ± 3.1
313.15 K | 992.8 ± 1.2 | 993.4 ± 1.2 | 994 ± 1.2 | 994.6 ± 1.2 | 995.2 ± 1.2 | 1529.4 ± 3.1 | 1530.7 ± 3.1 | 1532 ± 3.2 | 1533.3 ± 3.2 | 1534.6 ± 3.2
318.15 K | 990.8 ± 1.2 | 991.4 ± 1.2 | 992 ± 1.2 | 992.6 ± 1.2 | 993.2 ± 1.2 | 1536.5 ± 3.2 | 1537.7 ± 3.2 | 1538.9 ± 3.2 | 1540.1 ± 3.2 | 1541.3 ± 3.2

CN(C)C(=N)NC(=N)N.Cl [N,N-dimethylimidodicarbonimidic diamide hydrochloride] + O
[2]
Conditions | mass density, 308.15 K [kg/m3] | mass density, 313.15 K [kg/m3] | mass density, 318.15 K [kg/m3] | speed of sound, 308.15 K [m/s] | speed of sound, 313.15 K [m/s] | speed of sound, 318.15 K [m/s]
m1 = 0.05 | 997.5 ± 1.1 | 996 ± 1.2 | 994.3 ± 1.3 | 1527.4 ± 3.1 | 1534.4 ± 3.2 | 1539.2 ± 3.2
m1 = 0.1 | 999.1 ± 1.2 | 997.2 ± 1.2 | 995.5 ± 1.2 | 1529 ± 3.1 | 1537.8 ± 3.2 | 1541 ± 3.2
m1 = 0.15 | 1000.2 ± 1.1 | 998.8 ± 1.2 | 997.2 ± 1.2 | 1530 ± 3.1 | 1541.2 ± 3.2 | 1543.8 ± 3.2
